Measured values published in patent US4882347A, “"N-imidazolyl derivatives of bicyclic compounds and pharmaceutical compositions containing the same"” (Farmitalia Carlo Erba, S.r.l., priority 1987, dated 1989).
Where two headings read alike, the source gives them in different places.

Tests used:
glomerular TxA2 synthase = target: T1, glomerular TxA2 synthase (Rattus norvegicus, UniProt P49430); experiment: in vitro TxA2 synthase inhibiting activity in isolated glomeruli (TxB2 by RIA); type: biochemical
T1 construct: from tissue; host or cells: isolated glomeruli of rat kidney (remnant kidney and sham operated rats)
T1 sequence (P49430 1-533): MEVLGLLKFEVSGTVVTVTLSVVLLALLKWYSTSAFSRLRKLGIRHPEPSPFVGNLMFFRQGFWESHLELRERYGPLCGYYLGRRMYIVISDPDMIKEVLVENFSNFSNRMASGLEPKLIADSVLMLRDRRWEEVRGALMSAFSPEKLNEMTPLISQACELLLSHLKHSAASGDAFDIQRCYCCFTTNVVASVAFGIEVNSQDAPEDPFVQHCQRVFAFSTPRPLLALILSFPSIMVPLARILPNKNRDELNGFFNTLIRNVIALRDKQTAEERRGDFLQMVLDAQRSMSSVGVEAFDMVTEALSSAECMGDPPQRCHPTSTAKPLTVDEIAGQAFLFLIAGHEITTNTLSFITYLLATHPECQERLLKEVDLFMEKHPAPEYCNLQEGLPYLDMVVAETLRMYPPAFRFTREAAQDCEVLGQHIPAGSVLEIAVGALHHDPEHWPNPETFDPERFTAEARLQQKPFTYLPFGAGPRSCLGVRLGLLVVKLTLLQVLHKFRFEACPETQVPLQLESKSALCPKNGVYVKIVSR
Description: (§1) Charles River C.D. male rats of 6 weeks of age were used for this experiment. […] Four weeks after the second operation the blood pressure was measured and the rats were placed in metabolic cages for evaluation of proteinuria, measured by the method of Lowry. Only the animals with a blood pressure ≥170 mm Hg and an urinary protein excretion ≥100 mg/day were used. Comparative experiments were performed using sham operated rats. Also the in vitro TxA2 synthase inhibiting activities in serum and in isolated glomeruli were studied and compared. Glomerula preparation was performed according to the method previously described and TxB2 was measured by RIA.

serum TxA2 synthase = target: T2, serum TxA2 synthase (Rattus norvegicus, UniProt P49430); experiment: in vitro TxA2 synthase inhibiting activity in serum (TxB2 by RIA); type: biochemical
T2 construct: from tissue; host or cells: rat blood / serum (remnant kidney and sham operated rats)
T2 sequence (P49430 1-533): T1 sequence (P49430 1-533)
Description: as §1

[1] = tested on: spontaneous focal glomerulonephritis of the MNS rats; experiment: spontaneous focal glomerulonephritis in Milan Normotensive Strain (MNS) rats; type: in vivo, rat
Description: Moreover, in the spontaneous focal glomerulonephritis of the MNS rats, FCE 22178 was administered at the […] not treated group.
Sclerotic glomeruli show massive deposition of PAS-stained material.
Flattening and fusion of the foot processes, as well as formation of blebs and of electron dense lysosomes, together with the frequent detachment of the cell from the GMB is regarded to be related to the massive leakage of proteins through the glomerulus.

[2] = tested on: doxorubicin induced nephrosis; experiment: doxorubicin induced nephrosis in rats (oral treatment); type: in vivo, rat; conditions: 50 mg/kg b.i.d. oral
Description: The compound 1,2-dihydro-3-(1-imidazolyl)-6-carboxy-naphthalene (internal code FCE 22178) was orally administered, for doxorubicin induced nephrosis, to rats at a dosage of 50 mg/kg b.i.d. for 7 days starting from the 21st day after doxorubicin injection. A reduction in both proteinuria (from 1018±102 to 751±49 mg/24 h p<0.005) and creatinine serum levels (from 1.85±0.26 to 0.97±0.009 mg/dl p<0.001) was observed.
Moreover, in the spontaneous focal glomerulonephritis of the MNS rats, FCE 22178 was administered at the dosage of 50 mg/kg p.o. die+100 mg/kg/die in drinking water starting from the first month of age and all along the life of the animal and in comparison with a not treated group.
Compound 1,2-dihydro-3-(1-imidazolyl)-6-carboxynaphthalene, internal code FCE 22178, for instance, in this model at the oral dosage of 50 mg/kg b.i.d. for 7 days starting from the 21st after doxorubicin injection lowered triglycerides serum levels from 783±152 to 481.8±84 mg/dl.

[3] = glomeruli of RRM (remnant kidney) rats, read-out: IC50, glomerular TxB2 production
[4] = serum of RRM (remnant kidney) rats, read-out: IC50, serum TxB2 production / TxA2 synthesis

O=C(O)c1ccc2c(c1)C=C(n1ccnc1)CC2 [FCE 22178, 1,2-dihydro-3-(1-imidazolyl)-6-carboxynaphthalene]
selectivity for glomerular TxA2 synthase (vs serum) (glomerular TxA2 synthase; RRM rats, compared to OKYO46): greater selectivity for glomerular TxA2 synthase
IC50 (glomerular TxA2 synthase; [3]): 0.032 nM
IC50 (glomerular TxA2 synthase; glomeruli of control sham operated rats, read-out: IC5 (so in the source), glomeruli): 0.07 nM
IC50 (serum TxA2 synthase; [4]): 1.7 nM
IC50 (serum TxA2 synthase; serum of control sham operated rats, read-out: IC5 (so in the source), serum): 1 nM
production of TxA2 (measured as TxB2 levels) in isolated glomeruli ([1]; 50 mg/kg p.o. die + 100 mg/kg/die in drinking water from first month of age, untreated 4.44±1.2 at 8 months, p<0.01): 2.77±0.53 ng/mg prot.
TxB2 in urine ([1]; 50 mg/kg p.o. die + 100 mg/kg/die in drinking water, pattern as in isolated glomeruli (greatly reduced)): The same pattern was observed in urine
total cholesterol ([1]; 14 months old rats treated for 2 months, from 223±36): 130.5 ± 12.2 mg/dL
phospholipids ([1]; 14 months old rats treated for 2 months, from 338.6±56): 197.8 ± 21 mg/dL
triglycerides ([1]; 14 months old rats treated for 2 months, from 399.6±105): 169.3 ± 26.1 mg/dL
glomerular filtration rate (GFR) ([1]; adult MNS rats, 50 mg/kg p.o. die + 100 mg/kg/die in drinking water, printed: 1210±38 in controls vs treated, p<0.01): 816±45 μl/min/g k.w.
proteinuria ([1]; adult MNS rats, 50 mg/kg p.o. die + 100 mg/kg/die in drinking water, vs 428.8±42.3 in controls, p<0.01): 237±30.3 mg/24 h
number of sclerotic glomeruli ([1]; light microscopy, aged (14 months) MNS rats, control 27%, p<0.05): 22%
entity of flattening and fusion of foot processes in non sclerotic glomeruli ([1]; ultrastructural investigation, treated vs untreated MNS rats): definitly lower in treated animals
creatinine serum levels ([2]; 7 days from 21st day after doxorubicin, from 1.85±0.26, p<0.001): 0.97 ± 0.009 mg/dL
triglycerides serum levels ([2]; 7 days from 21st day after doxorubicin, from 783±152): 481.8 ± 84 mg/dL
proteinuria ([2]; 7 days from 21st day after doxorubicin, from 1018±102, p<0.005): 751±49 mg/24 h
urine TxB2 levels ([2]; 7 days, from 20.3±2.5 ng/24 h): under the detection limit of the method
serum TxB2 levels ([2]; 7 days, from 536±55 ng/ml): 92 ± 8.3 ng/mL

Cl.O.O=C(O)/C=C/c1ccc(Cn2ccnc2)cc1 [OKYO46, (E)-3-[4-(1H-imidazol-1-ylmethyl)-phenyl]-2-propenoic acid monohydrochloride monohydrate, reference compound]
selectivity glomeruli vs serum (glomerular TxA2 synthase; control sham operated rats): losed his selectivity
IC50 (glomerular TxA2 synthase; [3]): 0.09 nM
IC50 (glomerular TxA2 synthase; glomeruli of control sham operated rats, read-out: IC50, glomeruli): 1 nM
IC50 (serum TxA2 synthase; [4]): 0.6 nM
IC50 (serum TxA2 synthase; serum of control sham operated rats, read-out: IC50, serum): 50000 nM
